In EP0110955B1, “BRAIN-SPECIFIC DRUG DELIVERY” (UNIVERSITY OF FLORIDA, priority 1982, dated 1983):

What was measured:
[1] = Enzymatic hydrolytic cleavage and rate of oxidation of compound 5c in rat liver homogenate (HPLC); type: in vitro ADME, Sprague-Dawley rats; details: rat, pH 7.4; 20% liver homogenate, 37°C, pseudo first order; read-out: apparent half-lives for the disappearance
Method: A high pressure liquid chromatography (HPLC) method was developed for the studies of the degradation of the dihydropyridine dopamine derivative. The chromatographic analysis was performed on a component system consisting of a Waters Associate Model 6000A solvent delivery system, Model U6K injector and Model 440 dual channel absorbance detector operated at 254 and 280 nm. A 30 cm x 3.9 mm (internal diameter) reverse phase µBondapak C18 column (Waters Associates), operated at ambient temperature, was used for all separations. The mobile phase used for the separation of the dihydropyridine derivative, its degradation products and oxidation products consisted of 0.005 M solution of 1-heptanesul- fonic acid sodium salt (PIC B-7 Eastman Kodak) in CH3CN; 0.01 M aqueous dibasic ammonium phosphate (2.5:1). A peak was always shown at a retention time of 2.2 min which is believed to be a monodeacylated dihydropyridine derivative, since it eventually did result in 6a.
The liver homogenate was prepared by the following method. Three Sprague-Dawley rats were killed by decapitation and the livers were removed, weighed and homogenized by tissue homogenizer in 0.11 M aqueous phosphate buffer, pH 7.4, to make 20% liver homogenate. […] When all samples had been collected, they were centrifuged and each supernatant was filtered through Whatman 1 filter paper and analyzed by HPLC.

serum prolactin = experiment: In vivo effect on pituitary prolactin secretion (17-β-estradiol primed male rats); details: Intravenous administration, 1 mg/kg dose level
Excerpt: Adult male rats (Charles Rivers, CD-1) weighing 200 to 225 g were provided food and water ad libitum for at least one week period to experimentation. To elevate serum prolactin levels, each rat received a single s.c. implant of a Silastic tube (1.57 mm interior diameter, 5 mm x 3.15 mm overall size) packed with crystalline 17-,8-estradiol. Two days later the rats were lightly anesthetized with ether and a small incision was made over the right jugular vein for intravenous (LV.) administration of the test drugs. Compound 6a was injected at a dose of 1 mg/kg body weight/ml saline and groups of six rats were decapitated at 15, 30, 60 and 120 min later to collect blood samples. Control rats (time 0) received an I.V. injection of the saline vehicle and were decapitated 30 min later. Compound 5c was dissolved in 10% ethanol in saline and was injected IV. Rats were decapitated at 15, 30 and 120 min later. Control (time 0) animals received the 10% ethanol vehicle and were sampled 30 min later.
Trunk blood was collected, allowed to clot for 2h and the serum was separated and stored at -20 ° C for subsequent assay for prolactin concentrations. Each serum sample was assayed in duplicate by the doubleantibody radioimmunoassay procedure described by the National Pituitary Agency Hormone Distribution Program. Serum prolactin concentrations are expressed in terms of the PRL-RP-2 reference preparation provided. The intraassay coefficient of variation for 10 replicate samples of pooled serum obtained from male rats was 13.8%.
The effects of compounds 5c and 6a on serum prolactin concentrations were evaluated by one-way analysis of variance and Student-Newman Keuls tests. A probability level of less than 0.05 was selected for significance. See FIGURE 7 and the discussion thereof hereinabove.

- half-life at 900 µM [1]: 6 min
SMILES: CN1C=CCC(C(=O)NCCc2ccc(OC(=O)C(C)(C)C)c(OC(=O)C(C)(C)C)c2)=C1 [5c, 1-Methyl-3-(N-[β-(3,4-dipivalyloxyphenyl)-ethyl]}carbamoyl-1,4-dihydropyridine]
- time through which the reduction of serum prolactin was maintained (serum prolactin): ≥ 120 min
- decrease in serum prolactin concentrations (serum prolactin; male rats exposed to 17-β-estradiol): 79%
